Results published in article PMC8280128, “Antioxidant and food additive BHA prevents TNF cytotoxicity by acting as a direct RIPK1 inhibitor” (Cell Death & Disease, 2021).

Molecular target: T1, RIPK1 (Homo sapiens, UniProt Q13546)
T1 construct: AA 1–479, GST fusion
T1 sequence (Q13546 1-479): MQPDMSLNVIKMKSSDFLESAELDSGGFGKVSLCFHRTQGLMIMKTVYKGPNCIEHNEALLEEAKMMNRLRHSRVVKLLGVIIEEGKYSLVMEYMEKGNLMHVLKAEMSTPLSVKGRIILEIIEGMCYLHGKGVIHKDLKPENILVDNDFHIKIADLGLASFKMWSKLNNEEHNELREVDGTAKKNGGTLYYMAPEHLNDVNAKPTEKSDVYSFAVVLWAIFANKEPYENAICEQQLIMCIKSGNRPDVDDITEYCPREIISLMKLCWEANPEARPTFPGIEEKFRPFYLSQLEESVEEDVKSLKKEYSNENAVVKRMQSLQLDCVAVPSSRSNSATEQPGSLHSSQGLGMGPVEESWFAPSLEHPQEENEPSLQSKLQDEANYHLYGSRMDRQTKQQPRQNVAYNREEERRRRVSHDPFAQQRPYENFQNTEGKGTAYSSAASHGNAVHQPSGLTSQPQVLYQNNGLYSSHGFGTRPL
Experiment: ADP-Glo in vitro kinase assay with recombinant RIPK1 ([…] reduction at […])
Type: biochemical

inhibition at 100 µM: ~60%
Structure (SMILES): CC(C)(C)c1cc(O)ccc1O [TBHQ]
